{"source": "ChEMBL document CHEMBL1201862", "about": "“PubChem BioAssay data set” (2004)", "key": {"[1]": {"target": "T1, Alkaline phosphatase, tissue-nonspecific isozyme (Homo sapiens, UniProt P05186)", "T1 sequence (P05186 whole entry)": "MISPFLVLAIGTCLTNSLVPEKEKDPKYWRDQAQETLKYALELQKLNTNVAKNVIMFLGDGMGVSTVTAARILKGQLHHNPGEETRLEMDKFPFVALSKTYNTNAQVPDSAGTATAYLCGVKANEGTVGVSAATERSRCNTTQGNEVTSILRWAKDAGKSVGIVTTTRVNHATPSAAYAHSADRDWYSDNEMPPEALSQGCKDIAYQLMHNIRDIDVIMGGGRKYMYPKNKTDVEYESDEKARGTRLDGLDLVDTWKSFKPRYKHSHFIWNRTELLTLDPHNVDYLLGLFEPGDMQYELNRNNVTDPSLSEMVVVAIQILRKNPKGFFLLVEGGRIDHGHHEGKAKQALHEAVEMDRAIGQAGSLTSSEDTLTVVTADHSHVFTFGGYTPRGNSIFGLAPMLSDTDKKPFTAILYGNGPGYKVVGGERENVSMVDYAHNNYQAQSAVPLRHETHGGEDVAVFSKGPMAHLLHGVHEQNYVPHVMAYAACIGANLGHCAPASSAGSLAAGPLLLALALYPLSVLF", "assay": "TNAP enzyme inhibition by screening hits, dose response, selectivity assay for mouse IAP inhibitor project, biochemical, human TNAP, uHTS hits (AID 488906)", "assay_type": "functional"}, "Vero": {"system": "Vero", "assay": "cells", "assay_type": "functional", "conditions": "Chlorocebus sabaeus"}, "[2]": {"target": "Intestinal-type alkaline phosphatase (Homo sapiens, UniProt P09923)", "sequence (P09923 whole entry)": "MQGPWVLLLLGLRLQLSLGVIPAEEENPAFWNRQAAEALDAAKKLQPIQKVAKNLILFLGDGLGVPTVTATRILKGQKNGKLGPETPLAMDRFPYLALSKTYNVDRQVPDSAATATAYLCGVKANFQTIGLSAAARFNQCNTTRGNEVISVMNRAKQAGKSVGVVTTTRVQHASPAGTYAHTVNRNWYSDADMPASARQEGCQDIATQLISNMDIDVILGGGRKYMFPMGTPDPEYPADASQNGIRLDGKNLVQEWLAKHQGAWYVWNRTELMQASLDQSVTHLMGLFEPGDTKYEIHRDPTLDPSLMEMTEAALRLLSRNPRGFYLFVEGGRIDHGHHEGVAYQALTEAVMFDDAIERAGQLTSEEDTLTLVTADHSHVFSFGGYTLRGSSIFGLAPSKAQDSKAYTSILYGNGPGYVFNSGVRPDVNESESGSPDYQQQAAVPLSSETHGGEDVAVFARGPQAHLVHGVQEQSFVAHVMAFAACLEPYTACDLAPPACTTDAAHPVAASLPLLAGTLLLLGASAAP", "assay": "activation of human intestinal alkaline phosphatase – biochemical, dose response (AID 488873)", "assay_type": "functional"}, "[3]": {"target": "Intestinal-type alkaline phosphatase (Mus musculus, UniProt P24822)", "sequence (P24822 whole entry)": "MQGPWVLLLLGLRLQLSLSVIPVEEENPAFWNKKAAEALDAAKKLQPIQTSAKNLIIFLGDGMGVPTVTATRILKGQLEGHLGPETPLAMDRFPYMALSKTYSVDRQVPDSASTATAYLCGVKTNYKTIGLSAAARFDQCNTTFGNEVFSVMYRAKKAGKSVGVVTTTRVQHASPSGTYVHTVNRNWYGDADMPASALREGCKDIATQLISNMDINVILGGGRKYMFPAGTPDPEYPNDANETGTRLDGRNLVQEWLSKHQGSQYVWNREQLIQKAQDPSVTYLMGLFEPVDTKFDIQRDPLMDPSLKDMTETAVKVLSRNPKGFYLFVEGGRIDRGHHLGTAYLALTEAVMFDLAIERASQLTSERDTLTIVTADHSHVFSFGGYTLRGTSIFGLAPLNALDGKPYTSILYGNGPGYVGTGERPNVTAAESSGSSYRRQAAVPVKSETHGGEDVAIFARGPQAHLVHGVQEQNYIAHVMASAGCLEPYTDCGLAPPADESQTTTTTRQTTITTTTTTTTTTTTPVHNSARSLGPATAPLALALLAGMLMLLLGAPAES", "assay": "PubChem AID 488785", "assay_type": "functional"}, "[4]": {"target": "T2, Eukaryotic translation initiation factor 4H (Homo sapiens, UniProt Q15056)", "assay": "inhibitors of translation initiation factor eIF4H – SAR follow-up (AID 435011)", "assay_type": "functional"}, "[5]": {"target": "Luciferin 4-monooxygenase (Photinus pyralis, UniProt P08659)", "sequence (P08659 whole entry)": "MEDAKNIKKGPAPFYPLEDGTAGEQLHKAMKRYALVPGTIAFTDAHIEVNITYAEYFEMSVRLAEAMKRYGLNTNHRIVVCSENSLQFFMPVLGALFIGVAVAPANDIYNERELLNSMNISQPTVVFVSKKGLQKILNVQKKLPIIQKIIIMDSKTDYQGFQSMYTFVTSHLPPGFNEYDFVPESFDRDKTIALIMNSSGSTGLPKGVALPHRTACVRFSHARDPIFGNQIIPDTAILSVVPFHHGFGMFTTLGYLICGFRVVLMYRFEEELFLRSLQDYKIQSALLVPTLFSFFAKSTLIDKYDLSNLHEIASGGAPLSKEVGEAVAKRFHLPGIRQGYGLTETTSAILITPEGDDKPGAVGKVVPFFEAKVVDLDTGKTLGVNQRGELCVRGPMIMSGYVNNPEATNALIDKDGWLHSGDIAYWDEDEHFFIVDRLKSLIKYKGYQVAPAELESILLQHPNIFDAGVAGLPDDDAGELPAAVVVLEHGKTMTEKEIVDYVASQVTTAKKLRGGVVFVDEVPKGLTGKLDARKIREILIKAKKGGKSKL", "assay": "inhibition of purified Photinus pyralis luciferase – biochemical, luminescence, dose response (AID 1891)"}, "[6]": {"target": "T2, Eukaryotic translation initiation factor 4H", "assay": "eIF4H binding inhibition – biochemical, uHTS, fluorescence polarization, translation initiation inhibitor project, primary screen (AID 2012)"}, "[7]": {"target": "T3, Polyadenylate-binding protein 1 (Homo sapiens, UniProt P11940)", "T3 sequence (P11940 whole entry)": "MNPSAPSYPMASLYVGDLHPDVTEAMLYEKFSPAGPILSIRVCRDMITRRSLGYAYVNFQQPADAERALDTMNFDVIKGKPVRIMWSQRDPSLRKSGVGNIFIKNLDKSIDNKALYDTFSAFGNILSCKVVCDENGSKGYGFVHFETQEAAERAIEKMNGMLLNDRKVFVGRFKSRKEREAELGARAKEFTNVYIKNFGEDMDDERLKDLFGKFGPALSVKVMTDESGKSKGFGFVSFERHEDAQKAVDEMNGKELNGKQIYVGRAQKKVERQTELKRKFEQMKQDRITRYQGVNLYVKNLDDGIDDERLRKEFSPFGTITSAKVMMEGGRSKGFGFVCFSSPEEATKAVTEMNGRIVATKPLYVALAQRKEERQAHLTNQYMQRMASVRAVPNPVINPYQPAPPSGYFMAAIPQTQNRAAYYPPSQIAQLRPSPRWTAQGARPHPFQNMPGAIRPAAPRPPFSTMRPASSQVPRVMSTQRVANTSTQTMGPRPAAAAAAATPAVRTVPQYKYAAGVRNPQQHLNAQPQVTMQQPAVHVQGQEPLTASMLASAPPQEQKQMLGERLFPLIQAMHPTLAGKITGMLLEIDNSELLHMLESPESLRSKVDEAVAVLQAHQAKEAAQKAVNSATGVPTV", "assay": "PABP inhibition in translation initiation, SAR follow-up (AID 435018)", "assay_type": "functional"}, "[8]": {"target": "T3, Polyadenylate-binding protein 1", "assay": "blockers of PABP interaction with poly(A) – biochemical, fluorescence polarization, […] (AID 2014)"}, "[9]": {"assay": "Luminescence Cell-Based Dose Confirmation HTS to Identify Inhibitors of Platelet Dense Granule Release. [Related pubchem assays: 1663 (Primary HTS), 1678 (Summary of Project)]", "assay_type": "functional"}, "[10]": {"target": "G-protein coupled receptor 55 (Homo sapiens, UniProt Q9Y2T6)", "sequence (Q9Y2T6 whole entry)": "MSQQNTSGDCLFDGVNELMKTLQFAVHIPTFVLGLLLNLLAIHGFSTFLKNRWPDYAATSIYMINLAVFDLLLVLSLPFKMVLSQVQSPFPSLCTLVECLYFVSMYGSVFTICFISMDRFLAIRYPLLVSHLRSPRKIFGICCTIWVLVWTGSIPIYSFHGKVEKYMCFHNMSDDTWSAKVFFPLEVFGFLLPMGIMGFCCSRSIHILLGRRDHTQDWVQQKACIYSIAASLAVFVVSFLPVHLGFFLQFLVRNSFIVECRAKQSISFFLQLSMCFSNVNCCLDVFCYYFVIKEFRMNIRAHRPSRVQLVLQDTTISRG", "assay": "inhibition of LPI-stimulated GPR55 beta-arrestin translocation – imaging, U2OS, beta-arrestin-GFP, LPI agonist, primary screen (AID 2013);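 note: antagonist potency measured as reduced agonist-driven arrestin aggregation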", "assay_type": "functional"}, "[11]": {"assay": "blockers of SFLLRN-triggered platelet ATP secretion – cell-based, human platelets, luminescence, dry powder, dose response (AID 493100)", "assay_type": "functional"}, "Bcl-2-like protein 10": {"target": "Bcl-2-like protein 10 (Homo sapiens, UniProt Q9HD36)", "sequence (Q9HD36 whole entry)": "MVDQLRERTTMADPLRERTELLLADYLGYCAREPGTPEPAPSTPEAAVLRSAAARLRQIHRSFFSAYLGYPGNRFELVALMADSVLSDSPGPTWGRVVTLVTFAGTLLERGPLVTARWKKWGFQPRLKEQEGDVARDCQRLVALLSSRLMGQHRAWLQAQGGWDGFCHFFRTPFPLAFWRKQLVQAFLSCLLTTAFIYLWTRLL", "assay": "Bcl-B/TR3 peptide binding disruption – biochemical, fluorescence polarization, FITC-TR3 peptide, selectivity assay for Bfl-1 inhibitor project, primary screen (AID 748)"}, "[12]": {"target": "T4, Kappa-type opioid receptor (Homo sapiens, UniProt P41145)", "T4 sequence (P41145 whole entry)": "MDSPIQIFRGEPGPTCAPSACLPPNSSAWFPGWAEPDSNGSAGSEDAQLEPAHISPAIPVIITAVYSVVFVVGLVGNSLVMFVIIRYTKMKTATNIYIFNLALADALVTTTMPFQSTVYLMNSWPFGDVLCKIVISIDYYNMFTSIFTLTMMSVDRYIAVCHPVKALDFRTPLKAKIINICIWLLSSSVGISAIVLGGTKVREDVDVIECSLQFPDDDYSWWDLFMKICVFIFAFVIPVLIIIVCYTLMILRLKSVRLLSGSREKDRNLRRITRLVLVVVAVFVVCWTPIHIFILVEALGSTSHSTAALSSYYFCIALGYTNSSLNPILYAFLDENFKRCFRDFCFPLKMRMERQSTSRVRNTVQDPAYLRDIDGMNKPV", "assay_type": "functional"}, "[13]": {"assay": "viability loss in HeLa cells – cytotoxicity control for MgcRacGAP inhibitor project, dose response (AID 624300)", "assay_type": "functional"}, "HeLa": {"system": "HeLa", "assay": "ATP-based viability loss in HeLa cells – cell-based, CellTiter-Glo luminescence, cherry-pick samples, cytotoxicity control for MITF activator project, dose response (AID 540259)", "assay_type": "functional", "conditions": "Homo sapiens"}, "[14]": {"target": "T5, Rac GTPase-activating protein 1 (Homo sapiens, UniProt Q9H0H5)", "T5 sequence (Q9H0H5 whole entry)": "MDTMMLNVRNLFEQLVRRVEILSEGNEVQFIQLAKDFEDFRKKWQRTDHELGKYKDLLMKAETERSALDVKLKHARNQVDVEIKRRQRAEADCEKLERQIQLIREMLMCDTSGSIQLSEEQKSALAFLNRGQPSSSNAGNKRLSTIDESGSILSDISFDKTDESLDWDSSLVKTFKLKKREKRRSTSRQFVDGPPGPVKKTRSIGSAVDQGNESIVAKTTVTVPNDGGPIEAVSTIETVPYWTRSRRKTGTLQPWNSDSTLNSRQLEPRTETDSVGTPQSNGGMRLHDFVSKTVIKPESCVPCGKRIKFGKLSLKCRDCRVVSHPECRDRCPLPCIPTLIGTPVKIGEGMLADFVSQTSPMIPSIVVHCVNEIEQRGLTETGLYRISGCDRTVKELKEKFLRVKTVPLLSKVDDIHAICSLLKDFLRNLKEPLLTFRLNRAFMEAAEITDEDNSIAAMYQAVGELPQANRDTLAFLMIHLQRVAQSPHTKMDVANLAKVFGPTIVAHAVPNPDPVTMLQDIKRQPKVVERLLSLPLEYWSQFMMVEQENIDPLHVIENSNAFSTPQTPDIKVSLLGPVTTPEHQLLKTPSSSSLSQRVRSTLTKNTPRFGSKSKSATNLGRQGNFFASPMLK", "assay": "blockers of MgcRacGAP-driven Rac1 GTP hydrolysis – biochemical, ADP Hunter fluorescence, primary and confirmatory, confirmation (AID 624330)", "assay_type": "functional"}, "[15]": {"target": "T4, Kappa-type opioid receptor", "assay_type": "functional", "remark": "listed apart in the source"}, "Beta-galactosidase": {"target": "Beta-galactosidase (Escherichia coli, UniProt Q8VNN2)", "sequence (Q8VNN2 whole entry)": "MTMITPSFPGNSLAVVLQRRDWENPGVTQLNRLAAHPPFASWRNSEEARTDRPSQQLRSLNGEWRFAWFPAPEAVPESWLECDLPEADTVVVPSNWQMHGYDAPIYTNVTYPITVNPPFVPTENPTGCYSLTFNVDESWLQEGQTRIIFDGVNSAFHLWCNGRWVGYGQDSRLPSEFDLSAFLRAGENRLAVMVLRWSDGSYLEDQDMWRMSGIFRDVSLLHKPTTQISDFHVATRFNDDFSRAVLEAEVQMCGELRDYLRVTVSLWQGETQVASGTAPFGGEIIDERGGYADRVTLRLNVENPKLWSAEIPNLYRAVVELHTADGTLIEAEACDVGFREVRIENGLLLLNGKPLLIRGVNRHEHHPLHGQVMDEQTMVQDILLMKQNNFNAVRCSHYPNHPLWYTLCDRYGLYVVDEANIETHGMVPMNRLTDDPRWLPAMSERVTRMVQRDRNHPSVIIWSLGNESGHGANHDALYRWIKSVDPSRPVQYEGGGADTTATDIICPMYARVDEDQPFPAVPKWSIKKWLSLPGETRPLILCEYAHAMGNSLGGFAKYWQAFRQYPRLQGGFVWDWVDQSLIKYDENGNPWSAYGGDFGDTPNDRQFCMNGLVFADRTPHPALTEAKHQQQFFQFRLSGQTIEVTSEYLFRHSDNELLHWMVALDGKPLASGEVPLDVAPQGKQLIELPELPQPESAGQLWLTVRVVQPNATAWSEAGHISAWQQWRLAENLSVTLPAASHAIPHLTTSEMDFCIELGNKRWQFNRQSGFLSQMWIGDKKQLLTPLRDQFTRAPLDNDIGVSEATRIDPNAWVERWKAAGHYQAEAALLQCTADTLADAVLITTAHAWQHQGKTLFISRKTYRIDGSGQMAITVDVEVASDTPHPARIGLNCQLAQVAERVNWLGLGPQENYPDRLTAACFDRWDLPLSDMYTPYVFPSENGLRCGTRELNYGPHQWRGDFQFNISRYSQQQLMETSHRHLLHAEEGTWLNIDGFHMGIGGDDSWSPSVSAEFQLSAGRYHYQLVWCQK", "assay_type": "functional"}}, "note": "The source made the active and inactive calls.", "data": [{"smiles": "Cc1c(CN2CCC(C(=O)Nc3cccc(-c4cccc(Cl)c4)c3)CC2)cnn1C", "values": [{"measurement": "IC50", "setting": "[1]", "value": "> 100 µM (inactive)"}, {"measurement": "CC50", "setting": "Vero", "value": "16.1 µM (active)"}, {"measurement": "EC50", "setting": "[2]", "value": "37.2 µM (active)"}, {"measurement": "IC50", "setting": "[3]", "value": "4.27 µM (active)"}]}, {"smiles": "CCN1CCN(S(=O)(=O)c2ccc(Cl)c(C(=O)Nc3ccc(C(=O)N(CC)CC)cc3)c2)CC1", "values": [{"measurement": "IC50", "setting": "[4]", "value": "> 100 µM (inactive)"}, {"measurement": "EC50", "setting": "[5]", "value": "> 112 µM (not active)"}, {"measurement": "IC50", "setting": "[6]", "value": "> 100 µM (inactive)"}, {"measurement": "IC50", "setting": "[7]", "value": "1.33 µM (active)"}, {"measurement": "IC50", "setting": "[8]", "value": "15.1 µM (active)"}, {"measurement": "EC50", "setting": "[9]", "value": "> 112 µM (not active)"}]}, {"smiles": "CN(C1CCCCC1)S(=O)(=O)c1ccc(NC(=O)C2CCCCC2C(=O)O)cc1", "note": "(centres undefined)", "values": [{"measurement": "IC50", "setting": "[10]", "value": "4.72 µM (active)"}]}, {"smiles": "CCCC(=O)Nc1cccc(NC(=O)c2ccccc2Cl)c1", "values": [{"measurement": "AC50", "setting": "[11]", "value": "6.09 µM (active)"}]}, {"smiles": "Cc1ccc2nc3sc(-c4nnc(-c5ccccc5[N+](=O)[O-])o4)c(N)c3cc2c1", "values": [{"measurement": "IC50", "setting": "Bcl-2-like protein 10", "value": "> 100 µM (inactive)"}]}, {"smiles": "COc1cc(/C=C2\\SC(=S)N(Nc3ccccc3)C2=O)ccc1O", "values": [{"measurement": "IC50", "setting": "[12]", "value": "8.41 µM (active)"}, {"measurement": "CC50", "setting": "[13]", "value": "100 µM (active)"}, {"measurement": "AC50", "setting": "HeLa", "value": "41 µM (active)"}, {"measurement": "IC50", "setting": "[14]", "value": "55.7 µM (active)"}, {"measurement": "IC50", "setting": "[15]", "value": "> 32", "unit": "µM"}, {"measurement": "EC50", "setting": "Beta-galactosidase", "value": "9.67 µM (active)"}]}]}
